Assay results as given in US20060252807A1, “Novel ortho-terphenyl inhibitors of p38 kinase and methods of treating inflammatory disorders” (Kalypsys, Inc., priority 2005, published 2006).

Biological target: T1, active p38 alpha enzyme (Upstate Biotechnology) (Homo sapiens, UniProt Q16539)
T1 construct: purchased Upstate Biotechnology
Experiment: p38α biochemical assay (ATP turnover, luminescent detection, Cambrex PKlight)
Settings: p38α biochemical assay, Table 1 Biological Activity
Outline: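 In this kinase reaction, p38α used MapkapK2 as phosphorylation substrate at low ATP (1.4 uM final) over 2 hours at 30C, and activity was followed as ATP turnover by luminescence.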

T1 sequence (Q16539 whole entry): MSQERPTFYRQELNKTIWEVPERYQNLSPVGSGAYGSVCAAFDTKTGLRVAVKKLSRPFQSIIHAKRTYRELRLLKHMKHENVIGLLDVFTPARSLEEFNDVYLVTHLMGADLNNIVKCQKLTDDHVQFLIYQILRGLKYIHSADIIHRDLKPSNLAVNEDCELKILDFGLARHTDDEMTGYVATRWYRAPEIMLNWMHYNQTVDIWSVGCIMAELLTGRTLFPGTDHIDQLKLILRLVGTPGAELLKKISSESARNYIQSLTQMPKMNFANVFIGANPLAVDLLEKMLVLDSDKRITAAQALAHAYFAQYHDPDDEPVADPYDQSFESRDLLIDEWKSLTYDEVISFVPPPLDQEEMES

SMILES	IC50 [nM]
Cc1ccc(C(=O)CCC(=O)N2CCN(Cc3nc(-c4ccc(F)cc4)c(-c4nc(C(=O)NC(C)C)cs4)o3)CC2)cc1 [Example 493]	> 1000
CC(C)NC(=O)c1csc(-c2oc(CNC(=O)/C=C/c3ccccc3Cl)nc2-c2ccc(F)cc2)n1 [Example 231]	> 1000
COc1ccc([N+](=O)[O-])c(C(=O)NCc2onc(-c3ccc(F)cc3)c2-c2nc(C(=O)NC(C)C)cs2)c1 [Example 740]	> 1000
CC(C)NC(=O)c1csc(-c2oc(CNC(=O)c3ccc(Cl)cc3[N+](=O)[O-])nc2-c2ccc(F)cc2)n1 [Example 273]	≤ 1000
CC(=O)c1cccc(C(=O)N2CCN(Cc3nc(-c4ccc(F)cc4)c(-c4nc(C(=O)NC(C)C)cs4)o3)CC2)c1 [Example 406]	> 1000
CCC(C)C(NC(=O)OC(C)(C)C)C(=O)NCc1nc(-c2ccc(F)cc2)c(-c2nc(C(=O)NC(C)C)cs2)o1 (stereo not shown) [Example 328]	> 1000
Cc1cccc([N+](=O)[O-])c1C(=O)NCc1nc(-c2ccc(F)cc2)c(-c2nc(C(=O)NC(C)C)cs2)o1 [Example 220]	≤ 1000
CC(C)NC(=O)c1csc(-c2oc(CN3CCN(C(=O)c4ccc(Oc5ccccc5)cc4)CC3)nc2-c2ccc(F)cc2)n1 [Example 527]	≤ 1000
CC(C)NC(=O)c1csc(-c2c(-c3ccc(F)cc3)noc2CNC(=O)C2CC(O)CN2C(=O)OC(C)(C)C)n1 (stereo not shown) [Example 792]	> 1000
CC(C)NC(=O)c1csc(-c2oc(CN3CCN(C(=O)C(NC(=O)OC(C)(C)C)C(C)C)CC3)nc2-c2ccc(F)cc2)n1 (stereo not shown) [Example 535]	> 1000
CC(C)NC(=O)c1csc(-c2c(-c3ccc(F)cc3)noc2CNC(=O)CCc2ccccc2Br)n1 [Example 784]	> 1000
CCOc1ccccc1C(=O)NCc1onc(-c2ccc(F)cc2)c1-c1nc(C(=O)NC(C)C)cs1 [Example 654]	> 1000
CC(C)NC(=O)c1csc(-c2c(-c3ccc(F)cc3)noc2CNC(=O)CCc2ccccc2O)n1 [Example 656]	> 1000
CC(C)NC(=O)c1csc(-c2oc(CNC(=O)/C=C/c3ccc4c(c3)OCO4)nc2-c2ccc(F)cc2)n1 [Example 255]	> 1000
Cc1cc(C(=O)N2CCN(Cc3nc(-c4ccc(F)cc4)c(-c4nc(C(=O)NC(C)C)cs4)o3)CC2)cc(Cl)n1 [Example 429]	> 1000
Cc1c(C(=O)NCc2onc(-c3ccc(F)cc3)c2-c2nc(C(=O)NC(C)C)cs2)cccc1[N+](=O)[O-] [Example 698]	> 1000
CC(C)NC(=O)c1csc(-c2c(-c3ccc(F)cc3)noc2CNC(=O)c2cccc(O)c2O)n1 [Example 622]	> 1000
COc1ccc(C(=O)NCc2nc(-c3ccc(F)cc3)c(-c3nc(C(=O)NC(C)C)cs3)o2)c(OC)c1OC [Example 286]	> 1000
CC(C)NC(=O)c1csc(-c2oc(CNC(=O)c3ccc(Cl)cc3O)nc2-c2ccc(F)cc2)n1 [Example 195]	> 1000
COc1ccc(C(=O)NCc2onc(-c3ccc(F)cc3)c2-c2nc(C(=O)NC(C)C)cs2)c(OC)c1OC [Example 761]	> 1000
CC(C)NC(=O)c1csc(-c2oc(CNC(=O)C3=CCCC3)nc2-c2ccc(F)cc2)n1 [Example 107]	> 1000
CC(C)NC(=O)c1csc(-c2oc(CN3CCN(C(=O)c4ccc5cccc(O)c5n4)CC3)nc2-c2ccc(F)cc2)n1 [Example 483]	≤ 1000

Same assay, conditions: p38α kinase; Table 1 Biological Activity

SMILES	IC50 [nM]
CC(=O)c1ccc(N2CCN(Cc3onc(-c4ccc(F)cc4)c3-c3nc(C(=O)NC(C)C)cs3)CC2)cc1 [Example 1606]	> 1000
Cc1ccc(S(=O)(=O)NCCNC(=O)c2csc(-c3c(-c4ccc(F)cc4)n[nH]c3C3CCNCC3)n2)cc1 [Example 2157]	> 1000
CC(C)NC(=O)c1csc(-c2c(-c3ccc(F)cc3)noc2CNCCc2ccccc2F)n1 [Example 1459]	> 1000
CC(C)NC(=O)c1csc(-c2c(-c3ccc(F)cc3)noc2CNC(C)Cc2ccncc2)n1 (stereo not shown) [Example 1452]	> 1000
CCOC(=O)CC1C(=O)NCCN1Cc1nc(-c2ccc(F)cc2)c(-c2nc(C(=O)NC(C)C)cs2)o1 (stereo not shown) [Example 1257]	> 1000
O=C(NCc1ccccc1F)c1csc(-c2c(-c3ccc(F)cc3)n[nH]c2C2CCNCC2)n1 [Example 2082]	≤ 1000
Cc1nc(-c2ccc(F)cc2)c(-c2nc(C(=O)N3CCN(C(=O)OC(C)(C)C)CC3)cs2)s1 [Example 1909]	> 1000
CC(C)NC(=O)c1csc(-c2c(-c3ccc(F)cc3)noc2CNCc2ccccc2)n1 [Example 1415]	> 1000
CC(C)NC(=O)c1csc(-c2c(-c3ccc(F)cc3)noc2CNCc2ccc(F)cc2F)n1 [Example 1465]	> 1000
CC(C)NC(=O)c1csc(-c2oc(CNc3ccc4c(c3)OCCO4)nc2-c2ccc(F)cc2)n1 [Example 1353]	> 1000
CC(C)CC(C)NC(=O)c1csc(-c2c(-c3ccc(F)cc3)n[nH]c2C2CCNCC2)n1 (stereo not shown) [Example 2058]	> 1000
Cc1cccc(CNC(=O)c2csc(-c3c(-c4ccc(F)cc4)n[nH]c3C3CCNCC3)n2)c1 [Example 2073]	> 1000
Cc1nc(-c2ccc(F)cc2)c(-c2nc(C(=O)NCC3(O)CCCCC3)cs2)s1 [Example 1812]	≤ 1000
Cc1ccc(N2CCN(Cc3onc(-c4ccc(F)cc4)c3-c3nc(C(=O)NC(C)C)cs3)CC2)c(C)c1 [Example 1593]	> 1000
CC(C)NC(=O)c1csc(-c2c(-c3ccc(F)cc3)n[nH]c2C2CCN(C(=O)c3cccc(F)c3F)CC2)n1 [Example 872]	> 1000
CC(C)NC(=O)c1csc(-c2oc(CN3CCC(NC(=O)OC(C)(C)C)C3)nc2-c2ccc(F)cc2)n1 (stereo not shown) [Example 1259]	> 1000
CC(C)NC(=O)c1csc(-c2c(-c3ccc(F)cc3)n[nH]c2C2CCN(C(=O)c3ccccc3C=O)CC2)n1 [Example 846]	≤ 1000
CC(C)NC(=O)c1csc(-c2oc(CNCc3ccncc3)nc2-c2ccc(F)cc2)n1 [Example 1087]	> 1000
CC(C)NC(=O)c1csc(-c2oc(CNc3ccc(C(F)(F)F)cc3C(F)(F)F)nc2-c2ccc(F)cc2)n1 [Example 1374]	> 1000
COCCNC(=O)c1csc(-c2sc(C)nc2-c2ccc(F)cc2)n1 [Example 1720]	> 1000
COc1ccccc1CCNC(=O)c1csc(-c2sc(C)nc2-c2ccc(F)cc2)n1 [Example 1800]	≤ 1000
O=C(NCCO)c1csc(-c2c(-c3ccc(F)cc3)n[nH]c2C2CCNCC2)n1 [Example 2036]	≤ 1000
CCNC(=O)c1csc(-c2sc(C)nc2-c2ccc(F)cc2)n1 [Example 1706]	≤ 1000

SMILES	IC50 [nM]
CC(=O)N1CCC(n2cnc(-c3ccc(F)cc3)c2-c2nc(C(=O)NC(C)C)cs2)CC1 [Example 2194, 2-|3-(1-Acetyl-piperidin-4-yl)-5-(4-fluoro-phenyl)-3H-imidazol-4-yl|-thiazole-4-carboxylic acid isopropylamide]	≤ 1000
Cc1nc(-c2ccc(F)cc2)c(-c2nc(C(=O)N3CCCN(Cc4ccccc4)CC3)cs2)s1 [Example 1901]	> 1000
CC(C)NC(=O)c1csc(-c2c(-c3ccc(F)cc3)noc2CN2CCN(C(=O)OC(C)(C)C)C[C@H]2CO)n1 [Example 1618]	> 1000
Cc1cc(C)c(NC(=O)c2csc(-c3sc(C)nc3-c3ccc(F)cc3)n2)c(C)c1 [Example 1986]	> 1000
O=C(NCCc1ccccc1Cl)c1csc(-c2c(-c3ccc(F)cc3)n[nH]c2C2CCNCC2)n1 [Example 2126]	> 1000
CC(C)NC(=O)c1csc(-c2oc(CNCC3(O)CCCCC3)nc2-c2ccc(F)cc2)n1 [Example 1160]	> 1000
Cc1nc(-c2ccc(F)cc2)c(-c2nc(C(=O)NCc3ccc(C)c(C)c3)cs2)s1 [Example 1775]	≤ 1000
CC(=O)N1CCC(n2cnc(-c3ccc(Cl)cc3)c2-c2nc(C(=O)NC(C)C)cs2)CC1 [Example 2163]	≤ 1000
O=C(NN1CCOCC1)c1csc(-c2c(-c3ccc(F)cc3)n[nH]c2C2CCNCC2)n1 [Example 2060]	> 1000
CC(C)NC(=O)c1csc(-c2c(-c3ccc(F)cc3)n[nH]c2C2CCN(C(=O)c3ncc[nH]3)CC2)n1 [Example 2175, 2-{3-(4-Fluoro-phenyl)-5-|1-(1H-imidazole-2-carbonyl)-piperidin-4-yl|-1H-pyrazol-4-yl}-thiazole-4-carboxylic acid isopropylamide]	≤ 1000
CC(C)NC(=O)c1csc(-c2c(-c3ccc(F)cc3)c(=O)[nH]n2C)n1 [Example 2182, 2-|4-(4-Fluoro-phenyl)-2-methyl-5-oxo-2,5-dihydro-1H-pyrazol-3-yl|-thiazole-4-carboxylic acid isopropyl amide]	> 1000
CC(C)NC(=O)c1csc(-c2c(-c3ccc(F)cc3)n[nH]c2C2CCN(C(=O)c3cc4ccccc4o3)CC2)n1 [Example 877]	> 1000
CC(C)NC(=O)c1csc(-c2oc(CNCC(C)c3ccccc3)nc2-c2ccc(F)cc2)n1 (stereo not shown) [Example 1118]	> 1000
COc1ccccc1CCNCc1onc(-c2ccc(F)cc2)c1-c1nc(C(=O)NC(C)C)cs1 [Example 1476]	> 1000
CCCCN(CC)Cc1nc(-c2ccc(F)cc2)c(-c2nc(C(=O)NC(C)C)cs2)o1 [Example 1202]	> 1000
CC(C)NC(=O)c1csc(-c2oc(CNCCN3CCCC3)nc2-c2ccc(F)cc2)n1 [Example 1093]	> 1000
CC(C)NC(=O)c1csc(-c2c(-c3ccc(F)cc3)noc2CNc2cc(F)c(F)cc2F)n1 [Example 1670]	> 1000
CC(C)NC(=O)c1csc(-c2oc(CN3CCN(c4ccc(O)cc4)CC3)nc2-c2ccc(F)cc2)n1 [Example 1251]	> 1000
COc1ccc(C(=O)CNCc2onc(-c3ccc(F)cc3)c2-c2nc(C(=O)NC(C)C)cs2)cc1 [Example 1504]	> 1000
COc1ccc(CNC(=O)c2csc(-c3c(-c4ccc(F)cc4)n[nH]c3C3CCNCC3)n2)cc1OC [Example 2139]	> 1000
C=CCN(Cc1nc(-c2ccc(F)cc2)c(-c2nc(C(=O)NC(C)C)cs2)o1)C1CCCCC1 [Example 1231]	> 1000
CC(C)NC(=O)c1csc(-c2oc(CN3CCC(O)(c4ccc(Cl)cc4)CC3)nc2-c2ccc(F)cc2)n1 [Example 1289]	> 1000
